The values that follow come from patent publication US20160176924A1, “MODIFIED PEPTIDES AS POTENT INHIBITORS OF THE PSD-95/NMDA RECEPTOR INTERACTION” (priority 2008, published 2016).

The half-life is the time needed for the level to fall by half in the phase considered. As a reminder, the Ki is a measure of affinity in units of concentration, obtained from inhibition or displacement.

Bounds are passed on as bounds.

Data set [1] has as its system cultured cortical neurons. The experiment in a line: Neuronal NMDA excitotoxicity assay (LDH release). In kind it is cell-based, rat. To be noted: 500 nM. The source says:
When cultured cortical neurons are exposed to high concentrations of NMDA, an excitoxic cascade is initiated, which leads to cellular damage and ultimately neuronal cell death. Consequently, the cell membranes are destroyed, and cytoplasmic enzymes are released into the cell surroundings. The extent of this neuronal cell death can be quantified by measuring the release of cytoplasmic lactate dehydrogenase (LDH) enzyme into the cell medium. The compounds of interest and control compound (3) are investigated with respect to their abilities to attenuate NMDA-mediated toxicity. Compounds that are active in this assay are both membrane permeable, and can prevent ex vivo excitotoxicity, which are important properties for therapeutics towards excitotoxicity mediated diseases.
Cortical neurons were surgically removed from rats (e.g. E21) and then cultured for 7-9 days in vitro in Neurobasal A medium with B-27 supplement (each supplied by Invitrogen), further supplemented with 1 mM glutamine, 50 units/ml penicillin, and 50 μg/ml streptomycin. The following steps were then performed:
1. Samples of the cultured cortical neurons were removed from the Neurobasal-A based culture medium, at various time points prior to exposure to compound, and placed into “transfection medium” ([…]; as defined by Bading et al (1993) Science 260, 181-186) comprising: 10% modified Minimum Essential Medium (supplied by Invitrogen; product no: 21090022; containing Earles salt, but no L-glutamine), 90% Salt-Glucose-Glycine (SGG) medium: (114 mM NaCl, 0.219% NaHCO3, 5.292 mM KCL, 1 mM MgCl2, 2 mM CaCl2, 10 mM HEPES, 1 mM Glycine, 30 mM glucose, 0.5 mM sodium pyruvate, 0.1% Phenol Red), insulin-transferrin-selenite supplement (supplied by Sigma: 7.5 μg insulin/ml, 7.5 μg transferring/ml and 7.5 ng sodium selenite/ml); with a final osmolarity of 325 mosm/l. All subsequent steps were performed in this TM medium. 2. Samples of neurons are exposed to an NMDAR/PSD-95 inhibitor of the invention (compounds 40, 52-90) at a final concentration of between 0.05-50 μM for a period of between 0.5 to 1.5 hours. […] 3. Each sample of neurons was washed at least one time in TM medium to remove the NMDAR/PSD-95 inhibitor, and placed in TM medium. 4. After various periods of time, the samples of neurons were exposed to NMDA at a concentration of between 10-100 μM for a period of 0.5 to 1.5 hours, preferably 1 hour, after which the samples were again placed in TM medium for 24 hours. 5. LDH in the cell medium was quantified using commercial available kits (e.g. Promega Biotech AB, cat no G1780).
On the technique in general: LDH leaks from cells whose membrane has failed.

Data set [2] is described as follows: Human blood plasma stability assay. In kind it is in vitro ADME. How it is done: In this assay, the half-life (T1/2) of a compound in blood plasma is measured in vitro, whereby its susceptibility to degradation by proteases, peptidases and general plasma contents is quantified.
Compounds of interest were dissolved in human blood plasma (270 μl; 3H Biomedical, Sweden, cat no 1300-1-P50) to a concentration of 0.25 mM (30 μL of 2.5 mM) and incubated at 37° C. Aliquots (30 μl) were removed at various time intervals (0, 5, 10, 20, 40, 80, 160, 320, 960, 1280, 2550, 4560 and 7240 min) and quenched with 60 μL trichloroacetic acid (aq., 5%). The aliquots were vortexed, and incubated for at least 15 min, at 4° C. prior to centrifugation at 18,000 g for 2 min and the supernatant was analyzed by RP-HPLC to quantify the remaining compound (absorbance at 218 nm).

The next data set addresses T1, PDZ1-2 of PSD-95 (Homo sapiens, UniProt P78352, I195W).
T1 construct: PDZ1-2 (residues 61-249) tandem; made in house; host or cells: E. coli BL21-DE3 pLysS
Description: Stopped-flow fluorimetry (fluorescence titration assay). Format: binding. How it is done:
The HIS-PDZ2 and HIS-PDZ1-2 expression constructs of PSD-95 were genetically manipulated to encode a tryptophan, (in position 51 of SEQ ID NO: 4 and position 145 in SEQ ID NO: 8, respectively) instead of isoleucine. Binding between PDZ2 and PDZ1-2 and peptide ligand 74 was then monitored and quantified, by measuring the fluorescence increase from this tryptophan upon ligand recognition. (excitation λ at 280 nm, emission λ>320 nm). Stopped-flow measurements were performed at 10° C. or 25° C. on an SX-20MV stopped-flow spectrometer (Applied Photophysics, Leatherhead, UK). The peptide, in varying amounts, was rapidly mixed with a constant amount of PDZ and the change in fluorescence was measured over time. The fluorescence versus time plots was fitted to a single or double exponential equation, from which one or two observed rate constants were obtained. Observed rate constants were then plotted against the concentration of the varied species and microscopic rate constants determined by fitting the data to the equation for a bimolecular association (Eq. 1)
kobs=((kon^2(n−[A]0)^2+koff^2+2konkoff(n+[A]0))^0.5 (Eq. 1) […]
The equilibrium dissociation constant Kd of the PDZ-peptide complex was calculated by the experimental determined kon and koff.

In a further data set the target is T2, PDZ1-2 tandem of PSD-95 (Homo sapiens, UniProt P78352).
T2 construct: PDZ1-2 (residues 61-249) tandem; made in house; host or cells: E. coli BL21-DE3 pLysS
The experiment in a line: FP heterologous competition binding assay. To be noted: mean ± SEM. The text has this: (§1) Determined IC50 values may be converted to Ki values.^5 Suitable fluorophores include either 5-FAM or Cy5, which may be coupled to a tripeptide (KSG or CSG) linker attached to the N-terminus of the undecapeptide, to give 5-FAM-NR2B, Cy5-NR2B, 5-FAM-CRIPT and Cy5-CRIPT. The 5-FAM fluorophore may be attached to the undecapeptides by coupling with HATU. The Cy5 fluorophore may be conjugated to the undecapeptides by coupling Cy5-maleimide to the cysteine side chain of the tripeptide sequence CSG attached to the N-terminus of the peptide, as detailed in the Methodology section.
(§2) To measure the affinities between non-fluorescent peptides and PDZ domains, heterologous competition bindings assay were performed. This was done by adding increasing concentrations of peptide to a fixed concentration of Cy5-NR2B, 5-FAM-NR2B, Cy5-CRIPT or 5-FAM-CRIPT (50 nM) and PDZ (20 μM for PDZ1, 3 μM for PDZ2 and 1-2 and 5 μM for PDZ3) in the same TBS buffer and conditions as described above. FP values were then fitted to the general equation: Y=Bottom+(Top−Bottom)/[1[…](10̂^X-logIC50)], where X is the logarithmic value of peptide concentration. Hereby the IC50 value was obtained, which is used to calculate the theoretical competitive inhibition constant, Ki.^5
(§3) A convenient and reliable way to examine interactions between peptide analogues and PDZ domains is by using a fluorescence polarization (FP) assay. The three PDZ domains, PDZ1-3, of PSD-95 were expressed individually as set out above, while PDZ1-2 was also expressed as a tandem construct. […] IC50 values were then converted to Ki values.^5

In the next data set the target is T3, PDZ2 of PSD-95 (Homo sapiens, UniProt P78352).
T3 construct: PDZ2 (residues 155-249); made in house; host or cells: E. coli BL21-DE3 pLysS
The experiment in a line: FP heterologous competition binding assay. To be noted: for Ki: FP competition, mean ± SEM, NA = no activity/affinity.
From the text: as §1, §2, §3

The target in a further data set is T4, PDZ1 of PSD-95 (Homo sapiens, UniProt P78352).
T4 construct: PSD-95 PDZ1 (residues 61-151); made in house; host or cells: E. coli BL21-DE3 pLysS
The experiment in a line: FP heterologous competition binding assay. To be noted: FP competition; mean ± SEM; NA = no activity/affinity.
From the text: as §1, §2, §3

For a further data set, the target named is T5, PDZ3 of PSD-95 (Homo sapiens, UniProt P78352).
T5 construct: PDZ3 (residues 309-401); made in house; host or cells: E. coli BL21-DE3 pLysS
Description: FP heterologous competition binding assay. To be noted: FP competition; mean ± SEM; NA = no activity/affinity.
From the text: as §1, §2, §3

A further data set addresses T6, PSD-95's PDZ2 domain (Homo sapiens, UniProt P78352).
T6 construct: PDZ2 (residues 155-249); His-tag (thrombin-cleavable) (cleaved yes); made in house; host or cells: E. coli (as for the other PDZ constructs)
Description: Polyhistidine pull-down assay. Format: binding. To be noted: 200 μM.

From the text for PSD-95's PDZ2 domain: The polyhistidine pull-down is an in vitro technique that consists of a polyhistidine-tagged bait NRB2 or CRIPT protein C-terminal domain (e.g NR2B WT peptide with the sequence [sequence]) that can be used to identify competitors of a PDZ domain-binding partner (PDZ domain of PSD-95) (the prey). The bait protein is immobilized on cobalt chelated affinity gel. The bait serves as the secondary affinity support for the protein partner to the bait and for identifying competitors that can displace the prey from the bait. The competitors are peptide analogues, specifically an NMDAR/PSD-95 inhibitor of the present invention. PPIs, between the prey and bait are analyzed by chemically dissociating/eluting the bound prey (PDZ domain or peptide analogue) and visualizing the prey by SDS-PAGE and associated detection methods depending on the sensitivity requirements of the interacting proteins. These methods include Coomassie® Dye, silver, and zinc staining; western blotting; and [^35S] radioisotopic detection. Alternatively, the displaced prey detected on the gel, can be isolated from a polyacrylamide gel, and further analyzed. […]
As bait, a polyhistidine NR2B WT peptide with the sequence [sequence] was synthesized. […] Eluted PDZ2 was analyzed by SDS-PAGE and silver staining.

`CC[C@H](C)[C@H](NC(=O)CCOCCOCCOCCOCCOCCOCCOCCOCCOCCOCCOCCOCCOCCC(=O)N[C@H](C(=O)N[C@@H](CCC(=O)O)C(=O)N[C@@H](CO)C(=O)N[C@@H](CC(=O)O)C(=O)N[C@H](C(=O)O)C(C)C)[C@@H](C)CC)C(=O)N[C@@H](CCC(=O)O)C(=O)N[C@@H](CO)C(=O)N[C@@H](CC(=O)O)C(=O)N[C@H](C(=O)O)C(C)C` [(IESDV)2PEG12 (74), (IESDV)2PEG12]: in data set [1], the “effect on NMDA-mediated excitotoxicity, in words” value is “inhibit neuronal excitotoxicity, as efficiently as the clinical candidate Tat-N2B (3)”. Besides, in data set [2], the “degradation in human blood plasma, in words” value is recorded as “no significant degradation could be detected over a time period of 6 days”. Further, the half-life at […] in data set [2] (human, plasma, Blood plasma half life (T1/2)) is above 5.56 days. In addition, the Ki on PDZ1-2 of PSD-95 is around 100 nM; on PDZ1-2 tandem of PSD-95, around 100 nM; on PDZ2 of PSD-95, 3.1 ± 0.13 µM; on PDZ1 of PSD-95, 22 ± 1.4 µM.
In the case of `CN[C@@H](CCC(=O)O)C(=O)N[C@H](C(=O)N[C@@H](C)C(=O)N[C@H](C(=O)O)C(C)C)C(C)O` (stereo partly drawn) [Compound 40, N-Methyl-ETAV], at PDZ2 of PSD-95, the “fold increase in Ki (loss of affinity) compared to NR2B peptide (1), PDZ2” value was 2 fold. In addition, the Ki on PDZ2 of PSD-95 was 8.9 ± 0.5 µM; at PDZ3 of PSD-95, 78 ± 1.5 µM; on PDZ1 of PSD-95, 11 ± 0.47 µM. At PSD-95's PDZ2 domain, the “inhibition of PDZ2 binding to NR2B WT bait in pull-down, in words” value is reported as “very effective inhibitor”.
